Data reported in ChEMBL document CHEMBL3797052 (Eur J Med Chem, 2016).

Columns and labels:
Assay type in all cases: functional
MDA-MB-435 [1] = experiment: Antiproliferative activity against human MDA-MB-435 cells assessed as cell growth at 10^-7 M after 48 hrs by sulforhodamine B assay; conditions: MDA-MB-435, 48 h, read-out: Activity
[2] = Antiproliferative activity against human SF268 cells assessed as cell growth at 10^-7 M after 48 hrs by sulforhodamine B assay; conditions: SF-268, 48 h, read-out: Activity
NCI-H23 = experiment: Antiproliferative activity against human NCI-H23 cells assessed as growth inhibition after 48 hrs by sulforhodamine B assay; conditions: NCI-H23, 48 h
[3] = Antiproliferative activity against human PC3 cells assessed as cell growth at 10^-6 M after 48 hrs by sulforhodamine B assay; conditions: PC-3, 48 h, read-out: Activity
EKVX = experiment: Antiproliferative activity against human EKVX cells assessed as cell growth at 10^-7 M after 48 hrs by sulforhodamine B assay; conditions: read-out: Activity
T47D = experiment: Antiproliferative activity against human T47D cells assessed as cell growth at 10^-4 M after 48 hrs by sulforhodamine B assay; conditions: read-out: Activity
K562 = experiment: Antiproliferative activity against human K562 cells assessed as cell growth at 10^-6 M after 48 hrs by sulforhodamine B assay; conditions: K562, 48 h, read-out: Activity
[4] = Antiproliferative activity against human DU145 cells assessed as cell growth at 10^-8 M after 48 hrs by sulforhodamine B assay; conditions: DU-145, 48 h, read-out: Activity
SK-MEL-5 = experiment: Antiproliferative activity against human SK-MEL-5 cells assessed as growth inhibition after 48 hrs by sulforhodamine B assay; conditions: SK-MEL-5, 48 h; for CC50: read-out: LC50 (the source's name)
[5] = Antiproliferative activity against human OVCAR4 cells assessed as growth inhibition after 48 hrs by sulforhodamine B assay; conditions: OVCAR-4, 48 h; for CC50: read-out: LC50 (the source's name)
[6] = Antiproliferative activity against human UACC257 cells assessed as growth inhibition after 48 hrs by sulforhodamine B assay; conditions: UACC-257, 48 h; for CC50: read-out: LC50 (the source's name)
MDA-MB-435 [7] = experiment: Antiproliferative activity against human MDA-MB-435 cells assessed as growth inhibition after 48 hrs by sulforhodamine B assay; conditions: MDA-MB-435, 48 h; for CC50: read-out: LC50 (the source's name)
[8] = Antiproliferative activity against human RPMI8226 cells assessed as growth inhibition after 48 hrs by sulforhodamine B assay; conditions: RPMI-8226, 48 h
[9] = Antiproliferative activity against human HL-60(TB) cells assessed as cell growth at 10^-8 M after 48 hrs by sulforhodamine B assay; conditions: HL-60, 48 h, read-out: Activity
[10] = Antiproliferative activity against human SF539 cells assessed as cell growth at 10^-4 M after 48 hrs by sulforhodamine B assay; conditions: SF-539, 48 h, read-out: Activity
[11] = Antiproliferative activity against human HOP62 cells assessed as cell growth at 10^-7 M after 48 hrs by sulforhodamine B assay; conditions: HOP-62, 48 h, read-out: Activity
[12] = Antiproliferative activity against human SNB19 cells assessed as cell growth at 10^-7 M after 48 hrs by sulforhodamine B assay; conditions: SNB-19, 48 h, read-out: Activity
[13] = Antiproliferative activity against human Caki1 cells assessed as cell growth at 10^-8 M after 48 hrs by sulforhodamine B assay; conditions: CAKI-1, 48 h, read-out: Activity
[14] = Antiproliferative activity against human Caki1 cells assessed as cell growth at 10^-4 M after 48 hrs by sulforhodamine B assay; conditions: CAKI-1, 48 h, read-out: Activity
[15] = Antiproliferative activity against human RPMI8226 cells assessed as cell growth at 10^-4 M after 48 hrs by sulforhodamine B assay; conditions: RPMI-8226, 48 h, read-out: Activity
[16] = Antiproliferative activity against human HCT116 cells assessed as cell growth at 10^-8 M after 48 hrs by sulforhodamine B assay; conditions: HCT-116, 48 h, read-out: Activity
NCI-H522 = experiment: Antiproliferative activity against human NCI-H522 cells assessed as growth inhibition after 48 hrs by sulforhodamine B assay; conditions: NCI-H522, 48 h
[17] = Antiproliferative activity against human HCT116 cells assessed as cell growth at 10^-7 M after 48 hrs by sulforhodamine B assay; conditions: HCT-116, 48 h, read-out: Activity
[18] = Antiproliferative activity against human SW620 cells assessed as cell growth at 10^-4 M after 48 hrs by sulforhodamine B assay; conditions: SW-620, 48 h, read-out: Activity
[19] = Antiproliferative activity against human IGROV1 cells assessed as cell growth at 10^-6 M after 48 hrs by sulforhodamine B assay; conditions: IGROV-1, 48 h, read-out: Activity
[20] = Antiproliferative activity against human OVCAR8 cells assessed as cell growth at 10^-8 M after 48 hrs by sulforhodamine B assay; conditions: OVCAR-8, 48 h, read-out: Activity
[21] = Antiproliferative activity against human RPMI8226 cells assessed as cell growth at 10^-8 M after 48 hrs by sulforhodamine B assay; conditions: RPMI-8226, 48 h, read-out: Activity
[22] = Antiproliferative activity against human HCC2998 cells assessed as cell growth at 10^-8 M after 48 hrs by sulforhodamine B assay; conditions: HCC 2998, 48 h, read-out: Activity
[23] = Antiproliferative activity against human OVCAR5 cells assessed as cell growth at 10^-7 M after 48 hrs by sulforhodamine B assay; conditions: OVCAR-5, 48 h, read-out: Activity
[24] = Antiproliferative activity against human SW620 cells assessed as cell growth at 10^-6 M after 48 hrs by sulforhodamine B assay; conditions: SW-620, 48 h, read-out: Activity
[25] = Antiproliferative activity against human HCT116 cells assessed as growth inhibition after 48 hrs by sulforhodamine B assay; conditions: HCT-116, 48 h
CCRF-CEM = experiment: Antiproliferative activity against human CCRF-CEM cells assessed as growth inhibition after 48 hrs by sulforhodamine B assay; conditions: for CC50: read-out: LC50 (the source's name)
SK-MEL-2 = experiment: Antiproliferative activity against human SK-MEL-2 cells assessed as growth inhibition after 48 hrs by sulforhodamine B assay; conditions: SK-MEL-2, 48 h; for CC50: read-out: LC50 (the source's name)
ACHN = experiment: Antiproliferative activity against human ACHN cells assessed as cell growth at 10^-6 M after 48 hrs by sulforhodamine B assay; conditions: read-out: Activity
MDA-MB-435 [26] = experiment: Antiproliferative activity against human MDA-MB-435 cells assessed as cell growth at 10^-8 M after 48 hrs by sulforhodamine B assay; conditions: MDA-MB-435, 48 h, read-out: Activity
[27] = Antiproliferative activity against human MOLT4 cells assessed as cell growth at 10^-7 M after 48 hrs by sulforhodamine B assay; conditions: MOLT-4, 48 h, read-out: Activity

Work on `CNC(=O)c1cc(Oc2ccc3nc(NC(=O)Nc4cc(C(F)(F)F)cc(C(F)(F)F)c4)sc3c2)ccn1` yielded a growth at 0.1 µM (MDA-MB-435 [1]) of 95%, a growth at 0.1 µM [2] of 90% and a GI50 (NCI-H23) of 0.573 µM. The LC50 (NCI-H23) was 7.99 µM, the TGI (NCI-H23) was 2.38 µM and the growth at 1 µM [3] was 37%. For the same compound, the growth at 0.1 µM (EKVX) was 92%, the growth at 100 µM (T47D) was -60% and the growth at 1 µM (K562) was 44%. For the same compound, the growth at 0.01 µM [4] was 101%, the GI50 (SK-MEL-5) was 0.593 µM and the TGI (SK-MEL-5) was 2.09 µM. The CC50 (SK-MEL-5) was 5.87 µM, the GI50 [5] was 0.958 µM and the TGI [5] was 2.73 µM. The CC50 [5] was 7.58 µM, the GI50 [6] was 1.15 µM and the TGI [6] was 2.62 µM. It also gave a CC50 [6] of 5.95 µM, a GI50 (MDA-MB-435 [7]) of 1.04 µM and a TGI (MDA-MB-435 [7]) of 2.7 µM. The CC50 (MDA-MB-435 [7]) was 6.99 µM, the GI50 [8] was 1.02 µM and the LC50 [8] was 76.3 µM. For the same compound, the TGI [8] was 3.81 µM, the growth at 0.01 µM [9] was 110% and the growth at 100 µM [10] was -77%. For the same compound, the growth at 0.1 µM [11] was 91%, the growth at 0.1 µM [12] was 111% and the growth at 0.01 µM [13] was 91%. It also gave a growth at 100 µM [14] of -83%, a growth at 100 µM [15] of -52% and a growth at 0.01 µM [16] of 102%. For the same compound, the GI50 (NCI-H522) was 0.534 µM, the LC50 (concentration killing 50% of cells) (NCI-H522) was 8.1 µM and the TGI (NCI-H522) was 2.28 µM. It also gave a growth at 0.1 µM [17] of 105%, a growth at 100 µM [18] of -71% and a growth at 1 µM [19] of 62%. It also gave a growth at 0.01 µM [20] of 102%, a growth at 0.01 µM [21] of 104% and a growth at 0.01 µM [22] of 93%. For the same compound, the growth at 0.1 µM [23] was 98%, the growth at 1 µM [24] was 80% and the GI50 [25] was 1.12 µM. The LC50 (concentration killing 50% of the starting cells) [25] was 5.37 µM, the TGI [25] was 2.46 µM and the GI50 (CCRF-CEM) was 1.07 µM. For the same compound, the TGI (CCRF-CEM) was 5.83 µM, the CC50 (CCRF-CEM) was > 100 µM and the GI50 (SK-MEL-2) was 1.05 µM. The TGI (SK-MEL-2) was 3.13 µM, the CC50 (SK-MEL-2) was 9.31 µM and the growth at 1 µM (ACHN) was 32%. It also gave a growth at 0.01 µM (MDA-MB-435 [26]) of 92%.
Compound `CNC(=O)c1cc(Oc2ccc3nc(NC(=O)Nc4ccc(Cl)c(Cl)c4)sc3c2)ccn1` has a growth at 0.1 µM (MDA-MB-435 [1]) of 95%, a growth at 0.1 µM [2] of 99% and a GI50 (NCI-H23) of 2.78 µM. The LC50 (NCI-H23) was > 100 µM, the TGI (NCI-H23) was > 100 µM and the growth at 1 µM [3] was 92%. It also gave a growth at 0.1 µM (EKVX) of 93%, a growth at 100 µM (T47D) of -21% and a growth at 1 µM (K562) of 98%. The growth at 0.01 µM [4] was 102%, the GI50 (SK-MEL-5) was 2.24 µM and the TGI (SK-MEL-5) was 5.58 µM. The CC50 (SK-MEL-5) was > 100 µM, the GI50 [5] was 2.06 µM and the TGI [5] was 4.03 µM. The CC50 [5] was 7.89 µM, the GI50 [6] was 2.25 µM and the CC50 [6] was > 100 µM. The GI50 (MDA-MB-435 [7]) was 2.02 µM, the TGI (MDA-MB-435 [7]) was 4.62 µM and the CC50 (MDA-MB-435 [7]) was > 100 µM. For the same compound, the GI50 [8] was 3.66 µM, the LC50 [8] was > 100 µM and the TGI [8] was > 100 µM. It also gave a growth at 0.01 µM [9] of 102%, a growth at 100 µM [10] of -72% and a growth at 0.1 µM [11] of 112%. For the same compound, the growth at 0.1 µM [12] was 110%, the growth at 0.01 µM [13] was 92% and the growth at 100 µM [14] was -17%. The growth at 100 µM [15] was 15%, the growth at 0.01 µM [16] was 94% and the GI50 (NCI-H522) was 4.09 µM. For the same compound, the LC50 (concentration killing 50% of cells) (NCI-H522) was > 100 µM, the TGI (NCI-H522) was > 100 µM and the growth at 0.1 µM [17] was 97%. It also gave a growth at 100 µM [18] of 48%, a growth at 1 µM [19] of 98% and a growth at 0.01 µM [20] of 103%. For the same compound, the growth at 0.01 µM [21] was 96%, the growth at 0.01 µM [22] was 98% and the growth at 1 µM [24] was 128%. For the same compound, the growth at 0.1 µM [27] was 96%, the GI50 [25] was 1.88 µM and the LC50 (concentration killing 50% of the starting cells) [25] was 11.5 µM. For the same compound, the TGI [25] was 4.35 µM, the GI50 (CCRF-CEM) was > 100 µM and the TGI (CCRF-CEM) was > 100 µM. The CC50 (CCRF-CEM) was > 100 µM, the GI50 (SK-MEL-2) was 2.56 µM and the TGI (SK-MEL-2) was 5.97 µM. The CC50 (SK-MEL-2) was > 100 µM, the growth at 1 µM (ACHN) was 88% and the growth at 0.01 µM (MDA-MB-435 [26]) was 89%.
